Laboratory results published in patent US20230398090A1, “METHOD OF TREATING CORONAVIRUS INFECTION BY ADMINISTRATION OF ETHYL MERCURY OR THIOL DERIVATIVE THEREOF” (BEECH TREE LABS, INC., priority 2020, published 2023).
Read-outs that look alike come from different tables or passages of the source.

Columns and labels:
coronavirus (SARS-CoV-2) = details: for time until all of the subject's symptoms resolved after initial treatment: 200 ng sublingual every 15 minutes for one hour, then hourly until bedtime
[1] = tested on: pro-inflammatory cytokines; anti-inflammatory genes; details: genomic studies, no details given
[2] = Example 4: person, after less than 48 hours of therapy

C[CH2][Hg][S]c1ccccc1C(=O)[O-].[Na+] [thimerosal]
time until all of the subject's symptoms resolved after initial treatment (coronavirus (SARS-CoV-2); Example 1: person, positive SARS-CoV-2 test, fever 104° F., shortness of breath, cough): 20 to 24 h
time until all of the subject's symptoms resolved after initial treatment (coronavirus (SARS-CoV-2); Example 2: person, symptoms of SARS-CoV-2 infection (fever 103° F., lethargy, shortness of breath, achiness)): ≤ 24 h
weakness (coronavirus (SARS-CoV-2); Example 3: person, 72 hours after initial treatment): only partially improved
time until all of the subject's symptoms resolved after initial treatment (with the exception of weakness) (coronavirus (SARS-CoV-2); Example 3: person, presumptive SARS-CoV-2 (fever, weakness, shortness of breath, cough), 200 ng sublingual, day 1 schedule, then six times daily on days two and three): 72 h
chest pain (coronavirus (SARS-CoV-2); [2]): not completely eliminated
subject-reported energy, appetite and taste (coronavirus (SARS-CoV-2); [2]): increased energy, increased appetite and improved ability to taste
time of therapy until subject reported diminution of all symptoms (coronavirus (SARS-CoV-2); Example 4: person, positive SARS-CoV-2 test (cough, mild fever, aching, decreased energy, stomach pain), 200 ng sublingual, day 1 schedule, then six times daily on day two): less than 48 hours
effect on other anti-inflammatory genes [1]: up-regulating
effect on several pro-inflammatory cytokines [1]: down-regulates
